Test system: human intestinal microsomes
Test: Reduction in the intestinal barrier effect: simvastatin remaining after incubation with human intestinal microsomes
Conditions: 12 μmol, 1 mg/ml microsomes, 37° C.
Protocol: The test is carried out in vitro using human intestinal microsomes containing:
0.09 nmol/mg of cytochromes P450,
0.77 nmol/min/mg of cytochromes P450 3 A 4.
1 mg/ml of microsomes is then placed in contact:
with a regenerating system having the following composition:
followed by equilibration at 37° C. for 3 minutes.
100 μl aliquots are mixed with a solution of 400 μl of a 50/50 mixture of ice and acetonitrile at 0, 15, 30, 60, 120 and 180 minutes. Testosterone is tested in parallel as control component.
The conditions for carrying out the HPLC are as follows:
The mass spectrometer used is known under the reference PE SCIEX 150.

C[C@]12CC[C@H]3[C@@H](CCC4=CC(=O)CC[C@@]43C)[C@@H]1CC[C@@H]2O [TESTOSTERONE, Testosterone]
PERCENTAGE REMAINING (time 0 min): 100% | PERCENTAGE REMAINING (time 15 min): completely disappeared | PERCENTAGE REMAINING (time 180 min): 0%

From patent US6652865B2, “Method and formulation for decreasing statin metabolism” (Gattefosse Holding, priority 2001, dated 2003)
